Reference: patent US6403600B1, “Methoximinophenylacetic acid amides” (Bayer Aktiengesellschaft, priority 1998, dated 2002)

experiment: logP determination by HPLC (EEC-Directive 79/831 Annex V. A8); type: physicochemical; conditions: gradient method, acetonitrile/0.1% aqueous phosphoric acid

In order of falling logP:
1. CCCCN(CCCC)SN(C)C(=O)C(=NOC)c1ccccc1COc1ccccc1C [Example 9]  6.83
2. CON=C(C(=O)N(SC(F)(Cl)Cl)SC(F)(Cl)Cl)c1ccccc1COc1ccccc1C [Example 51]  6.61
3. CON=C(C(=O)N(C)SC(F)(Cl)Cl)c1ccccc1Oc1ncnc(Oc2cc(C)ccc2C(C)C)c1F [Example 124]  5.88
4. CON=C(C(=O)N(C)SC(F)(Cl)Cl)c1ccccc1Oc1ccc(OC(F)(F)F)cc1Cl [Example 44]  5.87
5. CON=C(C(=O)N(C)SC(F)(Cl)Cl)c1ccccc1Oc1ncnc(Oc2cccc(C(C)(C)C)c2)c1F [Example 132]  5.84
6. CON=C(C(=O)N(C)Sc1cccc(C(F)(F)F)c1)c1ccccc1CON=C(C)c1cccc(C(F)(F)F)c1 [Example 74]  5.84
7. CON=C(C(=O)N(C)Sc1ccc(Cl)c(C(F)(F)F)c1)c1ccccc1COc1ccccc1C [Example 25]  5.8
8. CON=C(C(=O)N(C)SC(F)(Cl)Cl)c1ccccc1Oc1ncnc(Oc2ccc(Cl)cc2Cl)c1F [Example 102]  5.76
9. CCc1cc(C)cc(Oc2ncnc(Oc3ccccc3C(=NOC)C(=O)N(C)SC(F)(Cl)Cl)c2F)c1 [Example 137]  5.76
10. CCN(SC(F)(Cl)Cl)C(=O)C(=NOC)c1ccccc1COc1ccccc1C [Example 53]  5.74
11. CON=C(C(=O)N(C)SC(F)(Cl)Cl)c1ccccc1Oc1ncnc(Oc2ccccc2C(C)(C)C)c1F [Example 111]  5.73
12. CON=C(C(=O)N(C)SC(F)(Cl)Cl)c1ccccc1COc1cc(C)ccc1C [Example 67]  5.68
13. CON=C(C(=O)N(C)SC(F)(Cl)Cl)c1ccccc1Oc1ncnc(Oc2ccc(SC(F)(F)F)cc2)c1F [Example 139]  5.6
14. CCSCc1ccccc1OCc1ccccc1C(=NOC)C(=O)N(C)SC(F)(Cl)Cl [Example 58]  5.59
15. CON=C(C(=O)N(SC(F)(Cl)Cl)C1CC1)c1ccccc1COc1ccccc1C [Example 60]  5.58
16. CON=C(C(=O)N(C)SC(F)(Cl)Cl)c1ccccc1Oc1ncnc(Oc2ccc(Cl)c(Cl)c2)c1F [Example 115]  5.58
17. CON=C(C(=O)N(C)SC(F)(Cl)Cl)c1ccccc1Oc1ncnc(Oc2ccccc2C(C)C)c1F [Example 123]  5.56
18. CON=C(C(=O)N(C)Sc1ccc(Cl)cc1)c1ccccc1COc1ccccc1C [Example 20]  5.53
19. CON=C(C(C)=NOCc1ccccc1C(=NOC)C(=O)N(C)SC(F)(Cl)Cl)c1ccccc1 [Example 143]  5.48
20. CON=C(C(=O)N(C)SC(F)(Cl)Cl)c1ccccc1Oc1ncnc(Oc2cccc(Cl)c2Cl)c1F [Example 91]  5.46
21. CON=C(C(=O)N(C)SC(F)(Cl)Cl)c1ccccc1Oc1ncnc(Oc2cc(Cl)ccc2C)c1F [Example 125]  5.46
22. CON=C(C(=O)N(C)SC(F)(Cl)Cl)c1ccccc1Oc1ncnc(OC)c1F [Example 145]  5.45
23. CON=C(C(=O)N(C)SC(F)(F)F)c1ccccc1COc1cccc(-c2ccccc2)c1 [Example 66]  5.36
24. CCOC(=O)N(SC(F)(Cl)Cl)C(=O)C(=NOC)c1ccccc1COc1ccccc1C [Example 30]  5.35
25. CON=C(C(=O)N(C)SC(F)(Cl)Cl)c1ccccc1Oc1ncnc(Oc2cc(C)ccc2C)c1F [Example 121]  5.34
26. CON=C(C(=O)N(C)SC(F)(Cl)Cl)c1ccccc1Oc1cc(Oc2cccc(Cl)c2C)ncn1 [Example 141]  5.29
27. CON=C(C(=O)N(C)C(=O)OCC(C)C)c1ccccc1COc1ccccc1C [Example 14]  5.21
28. CON=C(C(=O)N(C)SC(F)(Cl)Cl)c1ccccc1Oc1ncnc(Oc2ccc(C(F)(F)F)cc2OC)c1F [Example 112]  5.16
29. CON=C(C(=O)N(C)SC(F)(Cl)Cl)c1ccccc1Oc1ncnc(Oc2cccc(Cl)c2)c1F [Example 117]  5.14
30. CON=C(C(=O)N(C)SC(F)(Cl)Cl)c1ccccc1Oc1ncnc(Oc2ccc(F)cc2Cl)c1F [Example 114]  5.14
31. CON=C(C(=O)N(C)SC(F)(Cl)Cl)c1ccccc1Oc1ncnc(Oc2ccc(OC(F)(F)F)cc2Cl)c1F [Example 99]  5.08
32. CON=C(C(=O)N(C)SC(C)(C)C)c1ccccc1COc1ccccc1C [Example 55]  5.05
33. CON=C(C(=O)N(C)SC(F)(Cl)Cl)c1ccccc1Oc1ncnc(Oc2ccccc2C)c1F [Example 89]  5.05
34. CON=Cc1ccccc1Oc1ncnc(Oc2ccccc2C(=NOC)C(=O)N(C)SC(F)(Cl)Cl)c1F [Example 140]  5.03
35. CCSN(C)C(=O)C(=NOC)c1ccccc1CON=C(C)c1cccc(C(F)(F)F)c1 [Example 73]  5.02
36. CON=C(C(=O)N(C)SC(F)(Cl)Cl)c1ccccc1Oc1ncnc(Oc2ccc(C)cc2)c1F [Example 120]  5.02
37. CON=C(C(=O)N(C)SC(F)(Cl)Cl)c1ccccc1Oc1ncnc(Oc2cccc(C)c2)c1F [Example 128]  4.98
38. CON=C(C(=O)N(C)SC(F)(F)F)c1ccccc1CON=C(C)c1cccc(F)c1 [Example 84]  4.97
39. CCSC(=O)N(C)C(=O)C(=NOC)c1ccccc1COc1ccccc1C [Example 27]  4.91
40. CCOc1ccccc1Oc1ncnc(Oc2ccccc2C(=NOC)C(=O)N(C)SC(F)(Cl)Cl)c1F [Example 110]  4.86
41. CN(SC(F)(Cl)Cl)C(=O)C(=NOCF)c1ccccc1Oc1ncnc(Oc2ccccc2Cl)c1F [Example 98]  4.84
42. CON=C(C(=O)N(C)SC(F)(Cl)Cl)c1ccccc1Oc1ccccc1 [Example 47]  4.75
43. CON=C(C(=O)N(C)SC(=O)OC)c1ccccc1CON=C(C)c1cccc(C(F)(F)F)c1 [Example 40]  4.75
44. CON=C(C(=O)N(C)SC)c1ccccc1CON=C(C)c1cccc(C(F)(F)F)c1 [Example 71]  4.73
45. CCOCN(C)C(=O)C(=NOC)c1ccccc1CON=C(C)c1cccc(C(F)(F)F)c1 [Example 39]  4.58
46. CCSN(C)C(=O)C(=NOC)c1ccccc1COc1ccccc1C [Example 52]  4.55
47. CCCCOP(=O)(OC)N(C)C(=O)C(=NOC)c1ccccc1COc1ccccc1C (centres unmarked) [Example 15]  4.53
48. CON=C(C(=O)N(C)SC(F)(F)F)c1ccccc1COc1cc(F)ccc1F [Example 70]  4.48
49. CCOC(=O)N(C)C(=O)C(=NOC)c1ccccc1COc1ccccc1C [Example 12]  4.46
50. CON=C(C(=O)N(C)SC(F)(F)F)c1ccccc1Oc1ccccc1 [Example 50]  4.38
51. CON=C(C(=O)N(C)SC(F)(F)F)c1ccccc1CON=C(C)c1ccc(OC)c(OC)c1 [Example 80]  4.36
52. CON=C(C(=O)NSC(F)(Cl)Cl)c1ccccc1COc1ccccc1C [Example 28]  4.32
53. CON=C(C(=O)N(C)Sc1ccc(OC)cc1)c1ccccc1Oc1ccccc1 [Example 48]  4.31
54. CON=C(C(=O)N(C)SN(C)C(=O)OC)c1ccccc1COc1ccccc1C [Example 8]  4.24
55. CCS(=O)(=O)N(C)C(=O)N(C)C(=O)C(=NOC)c1ccccc1COc1ccccc1C [Example 35]  4.05
56. CON=C(C(=O)N(C)S(C)(=O)=O)c1ccccc1COc1ccccc1C [Example 18]  3.82
57. CON=C(C(=O)N(C)SC(=O)OC)c1ccccc1CON=C(C)c1ccc(OC)c(OC)c1 [Example 82]  3.7
58. CON=C(C(=O)N(C)SC(=O)OC)c1ccccc1Oc1ccccc1 [Example 43]  3.59
59. CON=C(C(=O)N(C)C(=O)N(C)C)c1ccccc1COc1ccccc1C [Example 17]  3.38
60. CNC(=O)N(C)C(=O)C(=NOC)c1ccccc1COc1ccccc1C [Example 31]  3.29

In order of falling chromatographic logP:
1. CON=C(C(=O)N(C)SN(C)C(=O)C(=NOC)c1ccccc1COc1ccccc1C)c1ccccc1COc1ccccc1C [Example 45]  6.1
2. CON=C(C(=O)N(C)SC(F)(Cl)Cl)c1ccccc1Oc1ncnc(Oc2ccccc2Br)c1F [Example 2, 2-{2-[6-(2-bromo-phenoxy)-5-fluoro-pyrimidin-4-yloxy]-phenyl}-N-(dichlorofluoro-methyl-sulphanyl)-2-methoxyimino-N-methylacetamide]  5.1
